Experimental findings from patent publication US12226412B2, “Heteroaryl-ketone fused azadecalin glucocorticoid receptor modulators” (Corcept Therapeutics, Inc., priority 2012, dated 2025) are described below.

pKi: −log10 of the molar value. Like-named read-outs stand apart in the source and are kept apart here.

In one test the target is T1, human recombinant GR (Homo sapiens, UniProt P04150).
T1 construct: purchased PanVera P2812
T1 sequence (P04150 1-777): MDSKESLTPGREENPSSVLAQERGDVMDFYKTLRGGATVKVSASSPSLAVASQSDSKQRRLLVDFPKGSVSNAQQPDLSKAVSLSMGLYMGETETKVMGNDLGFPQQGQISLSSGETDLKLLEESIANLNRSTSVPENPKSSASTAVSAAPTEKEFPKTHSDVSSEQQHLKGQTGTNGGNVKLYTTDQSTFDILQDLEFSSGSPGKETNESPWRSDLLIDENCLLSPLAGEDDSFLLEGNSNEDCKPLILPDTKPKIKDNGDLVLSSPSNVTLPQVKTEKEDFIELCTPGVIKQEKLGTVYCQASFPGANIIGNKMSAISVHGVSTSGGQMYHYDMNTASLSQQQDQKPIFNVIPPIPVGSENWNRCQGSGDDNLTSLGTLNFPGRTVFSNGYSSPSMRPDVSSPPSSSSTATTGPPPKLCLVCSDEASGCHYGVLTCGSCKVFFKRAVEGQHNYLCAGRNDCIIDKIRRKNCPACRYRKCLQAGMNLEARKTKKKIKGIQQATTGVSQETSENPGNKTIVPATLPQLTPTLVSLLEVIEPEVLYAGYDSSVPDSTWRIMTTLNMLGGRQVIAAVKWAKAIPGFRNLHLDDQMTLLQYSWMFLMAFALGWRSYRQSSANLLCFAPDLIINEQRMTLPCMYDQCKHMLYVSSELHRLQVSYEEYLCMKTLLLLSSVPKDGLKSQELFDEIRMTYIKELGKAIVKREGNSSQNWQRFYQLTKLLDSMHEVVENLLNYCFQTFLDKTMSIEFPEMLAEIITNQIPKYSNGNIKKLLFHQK
Nature of the test: Human glucocorticoid receptor (GR) fluorescence polarisation (FP) binding assay. The protocol: Human Glucocorticoid Receptor (GR) Fluorescence Polarisation (FP) Binding Assay
The following is a description of a FP assay for measuring compound inhibition of labelled glucocorticoid binding to the human recombinant GR.
The binding affinity of test compounds was determined using a FP binding assay using human recombinant GR (PanVera P2812) and a fluorescent labelled glucocorticoid ligand (Fluorome GS Red) (PanVera P2894). The presence of inhibitors prevents the formation of a GS Red/GR complex resulting in a decrease in the measured polarisation value. The change in polarisation value in the presence of test compounds is used to calculate the binding affinity of the compound for GR.
This assay was performed in 384 well, black, round-bottom, polypropylene micro titre plates in a final volume of 20 μl. The assay contained 5 μl 1 nM GR (final concentration), 5 μl 0.5 nM Fluorome GS Red (final concentration) in the presence of 10 μl test compounds. Positive control wells (high polarisation) receive, 10 μl 2% (v: v) DMSO vehicle (1% (v/v) final concentration)+5 μl 1 nM GR and 5 μl 0.5 nM Fluorome GS Red. […] Assay blank background wells (used for normalisation) receive 15 μl 1× GS screening buffer+5 μl GR.
Compounds were prepared as solubilised solids at 10 mM in DMSO. On the day of assay, an 8 point half-log serial dilution (55 μl DMSO+25 μl compound solution) was prepared. A 1:50 dilution (1 μl compound solution+49 μl 1× GR screening buffer) was prepared for each compound. The compounds were prepared at 2× final assay concentration.
The plates were mixed and incubated for 4 hour at room temperature.
10× GR screening buffer (100 mM potassium phosphate pH 7.4, 200 mM Na2MoO4, 1 mM EDTA, 20% (v/v) DMSO). To prepare 1× GR screening buffer, combine 1 ml 10× GR screening buffer (PanVera P2814)+1 ml stabilising peptide (PanVera P2815)+7.95 ml 4° C. MQ water. Add 50 μl 1M DTT, vortex and place on ice until use.

Test [1] has as its system induction of TAT by dexamethasone in HepG2 cells. Nature of the test: HepG2 tyrosine aminotransferase (TAT) assay. Type of test: cell-based, human. How it is done: Example 21. HepG2 Tyrosine Aminotransferase (TAT) Assay
Glucocorticoid mediated activation of TAT occurs by transactivation of glucocorticoid response elements in the TAT promoter by glucocorticoid receptor agonist complex.
TAT activity was measured as outlined in the literature by A. Ali et al., J. Med. Chem., 2004, 47, 2441-2452.
HepG2 cells were cultured using MEME media supplemented with 10% (v/v) foetal bovine serum; 2 mM L-glutamine and 1% (v/v) NEAA at 37° C., 5%/95% (v/v) CO2/air. The HepG2 cells were counted and adjusted to yield a density of 0.125×10^6 cells/ml in RPMI 1640 without phenol red, 10% (v/v) charcoal stripped FBS, 2 mM L-glutamine and seeded at 25,000 cells/well in 200 μl into 96 well, sterile, tissue culture micro titre plates, and incubated at 37° C., 5% CO2 for 24 hours
Growth media was removed and replaced with assay media {RPMI 1640 without phenol red, 2 mM L-glutamine+10 μM forskolin}. […] Compounds were serially half log diluted in 100% (v/v) dimethylsupfoxide from a 10 mM stock.
HepG2 cells were then lysed with 30 μl of cell lysis buffer containing a protease inhibitor cocktail for 15 minutes at 4° C. 155 μl of substrate mixture was then added containing 5.4 mM Tyrosine sodium salt, 10.8 mM alpha ketoglutarate and 0.06 mM pyridoxal 5′ phosphate in 0.1M potassium phosphate buffer (pH 7.4). After 2 hours incubation at 37° C. the reaction was terminated by the addition of 15 μl of 10M aqueous potassium hydroxide solution, and the plates incubated for a further 30 minutes at 37° C. The TAT activity product was measured by absorbance at […].
[compound] and fitting the data to a 4 parameter logistic equation.

[2] abbreviates: human recombinant GR, fluorescence polarisation binding assay, read-out: GR binding.
The mark [3] stands for this setting: HepG2 cells, challenge of 100 nM dexamethasone, Ki from IC50 by Cheng and Prusoff equation.

With `COc1ccc(S(=O)(=O)N2CCC3=Cc4c(cnn4-c4ccc(F)cc4)C[C@]3(C(=O)c3ccccn3)C2)cc1` [Example 2I, (R)-(1-(4-fluorophenyl)-6-((4-methoxyphenyl)sulfonyl)-4,4a,5,6,7,8-hexahydro-1H-pyrazolo[3,4-g]isoquinolin-4a-yl)(pyridin-2-yl)methanone], the pKi on human recombinant GR (setting [2]) is > 9.30; in test [1] (setting [3]), > 7.70.
The like results for `Cc1ccc(S(=O)(=O)N2CCC3=Cc4c(cnn4-c4ccc(F)cc4)C[C@]3(C(=O)c3ccccn3)C2)cc1F` [Example 2J, (R)-(6-((3-fluoro-4-methylphenyl)sulfonyl)-1-(4-fluorophenyl)-4,4a,5,6,7,8-hexahydro-1H-pyrazolo[3,4-g]isoquinolin-4a-yl)(pyridin-2-yl)methanone] were, in that order, > 9.30 and > 7.70.
On the same counts, the results for `O=C(c1ccccn1)[C@]12Cc3cnn(-c4ccc(F)cc4)c3C=C1CCN(S(=O)(=O)c1ccccc1)C2` [Example 2K, (R)-(1-(4-fluorophenyl)-6-(phenylsulfonyl)-4,4a,5,6,7,8-hexahydro-1H-pyrazolo [3,4-g]isoquinolin-4a-yl)(pyridin-2-yl)methanone] are > 9.30 and > 7.70.
On the same counts, the results for `O=C(c1ccccn1)[C@]12Cc3cnn(-c4ccc(F)cc4)c3C=C1CCN(S(=O)(=O)c1ccccc1F)C2` [Example 2L, (R)-(1-(4-fluorophenyl)-6-((2-fluorophenyl)sulfonyl)-4,4a,5,6,7,8-hexahydro-1H-pyrazolo[3,4-g]isoquinolin-4a-yl)(pyridin-2-yl)methanone] are > 9.30 and > 7.70.
Consider `Cn1cc(S(=O)(=O)N2CCC3=Cc4c(cnn4-c4ccc(F)cc4)C[C@]3(C(=O)c3ccccn3)C2)cn1` [Example 2M, (R)-(1-(4-fluorophenyl)-6-((1-methyl-1H-pyrazol-4-yl)sulfonyl)-4,4a,5,6,7,8-hexahydro-1H-pyrazolo[3,4-g]isoquinolin-4a-yl)(pyridin-2-yl)methanone], for which the pKi on human recombinant GR (setting [2]) is > 9.30; in test [1] (setting [3]), 7.00 to 7.70.
On the same counts, the results for `O=C(c1ccccn1)[C@]12Cc3cnn(-c4ccc(F)cc4)c3C=C1CCN(S(=O)(=O)c1ccc(C(F)(F)F)nc1)C2` [Example 2N, (R)-(1-(4-fluorophenyl)-6-((6-(trifluoromethyl)pyridin-3-yl)sulfonyl)-4,4a,5,6,7,8-hexahydro-1H-pyrazolo[3,4-g]isoquinolin-4a-yl) (pyridin-2-yl)methanone] are > 9.30 and > 7.70.
`Cc1ccc(S(=O)(=O)N2CCC3=Cc4c(cnn4-c4ccc(F)cc4)C[C@]3(C(=O)c3ccccn3)C2)cc1` [Example 2O, (R)-(1-(4-fluorophenyl)-6-tosyl-4,4a,5,6,7,8-hexahydro-1H-pyrazolo [3,4-g]isoquinolin-4a-yl)(pyridin-2-yl)methanone]: the pKi at human recombinant GR was > 9.30; in test [1] (setting [3]) it was > 7.70.
Take `O=C(c1ccccn1)[C@]12Cc3cnn(-c4ccc(F)cc4)c3C=C1CCN(S(=O)(=O)c1ccc(F)c(C(F)(F)F)c1)C2` [Example 2P, (R)-(6-((4-fluoro-3-(trifluoromethyl)phenyl)sulfonyl)-1-(4-fluorophenyl)-4,4a,5,6,7,8-hexahydro-1H-pyrazolo[3,4-g]isoquinolin-4a-yl)(pyridin-2-yl)methanone]: the pKi was 9.00 to 9.30 on human recombinant GR and > 7.70 in test [1].
With `N#Cc1ccc(S(=O)(=O)N2CCC3=Cc4c(cnn4-c4ccc(F)cc4)C[C@]3(C(=O)c3ccccn3)C2)cc1` [Example 2Q, (R)-4-((1-(4-fluorophenyl)-4a-picolinoyl-4a,5,7,8-tetrahydro-1H-pyrazolo[3,4-g]isoquinolin-6 (4H)-yl)sulfonyl)benzonitrile], the pKi at human recombinant GR (setting [2]) is > 9.30; in test [1] (setting [3]), 7.00 to 7.70.
The like results for `COc1ccc(S(=O)(=O)N2CCC3=Cc4c(cnn4-c4ccc(F)cc4)C[C@]3(C(=O)c3ccccn3)C2)cn1` [Example 2R, (R)-(1-(4-fluorophenyl)-6-((6-methoxypyridin-3-yl)sulfonyl)-4,4a,5,6,7,8-hexahydro-1H-pyrazolo[3,4-g]isoquinolin-4a-yl)(pyridin-2-yl)methanone] were, in that order, > 9.30 and > 7.70.
Consider `O=C(c1ccccn1)[C@]12Cc3cnn(-c4ccc(F)cc4)c3C=C1CCN(S(=O)(=O)C1CCOCC1)C2` [Example 2S, (R)-(1-(4-fluorophenyl)-6-((tetrahydro-2H-pyran-4-yl)sulfonyl)-4,4a,5,6,7,8-hexahydro-1H-pyrazolo[3,4-g]isoquinolin-4a-yl)(pyridin-2-yl)methanone], for which the pKi was < 9.00 on human recombinant GR (setting [2]) and ≤ 7.00 in test [1] (setting [3]).
Turning to `O=C(c1ccccn1)[C@]12Cc3cnn(-c4ccc(F)cc4)c3C=C1CCN(S(=O)(=O)C1CCCCC1)C2` [Example 2T, (R)-(6-(cyclohexylsulfonyl)-1-(4-fluorophenyl)-4,4a,5,6,7,8-hexahydro-1H-pyrazolo [3,4-g]isoquinolin-4a-yl)(pyridin-2-yl)methanone], the pKi was < 9.00 at human recombinant GR (setting [2]) and ≤ 7.00 in test [1] (setting [3]).
On the same counts, the results for `CCn1nccc1S(=O)(=O)N1CCC2=Cc3c(cnn3-c3ccc(F)cc3)C[C@]2(C(=O)c2cc(C(F)(F)F)ccn2)C1` [Example 2U, (R)-(6-((1-ethyl-1H-pyrazol-5-yl)sulfonyl)-1-(4-fluorophenyl)-4,4a,5,6,7,8-hexahydro-1H-pyrazolo[3,4-g]isoquinolin-4a-yl)(4-(trifluoromethyl)pyridin-2-yl)methanone] are < 9.00 and > 7.70.
Take `Cc1n[nH]c(C)c1S(=O)(=O)N1CCC2=Cc3c(cnn3-c3ccc(F)cc3)C[C@]2(C(=O)c2cc(C(F)(F)F)ccn2)C1` [Example 2V, (R)-(6-((3,5-dimethyl-1H-pyrazol-4-yl)sulfonyl)-1-(4-fluorophenyl)-4,4a,5,6,7,8-hexahydro-1H-pyrazolo[3,4-g]isoquinolin-4a-yl)(4-(trifluoromethyl)pyridin-2-yl)methanone]: the results for the pKi (at human recombinant GR (setting [2]); in test [1] (setting [3])) were < 9.00 and 7.00 to 7.70, respectively.
